Where two headings read alike, the source gives them in different places. One block for each compound: values may come before it.
How the values were obtained:
[1] = for relative plasma concentrations between study arms: targeted analysis, baseline vs cimetidine exposure
clinical = conditions: both, human, po; for Cmax: plasma
[2] = pyrimethamine 75 mg, healthy adults; cited from earlier work
[3] = cited from earlier work
Oct1 [4] = conditions: Oct1 knockout mice vs wild-type mice, single oral dose of metformin; cited from earlier work
[5] = rats, cimetidine 100 mg/kg intraperitoneally; cited from earlier work
[6] = excreted unchanged into urine; cited from earlier work
aldehyde oxidase, AO = conditions: cited from earlier work
OCT2 = conditions: read-out: IC50 for OCT2; cited from earlier work
[7] = tested on: nicotinamide N-methyltransferase, NNMT; conditions: cited from earlier work
OCT1 [8] = conditions: potent OCT1 inhibitor new chemical entity vs placebo, healthy adults; cited from earlier work
[9] = cimetidine 400 mg vs baseline, healthy adults
[10] = cimetidine 400 mg vs baseline, healthy adults, listed as NMA
[11] = decrease with cimetidine 400 mg vs baseline, healthy adults
[12] = increase with cimetidine 400 mg vs baseline, healthy adults

SMILES: C[N+](C)(C)CC(=O)[O-] [glycine betaine]
relative plasma concentrations between study arms [1]: no significant differences

relative plasma concentrations between study arms [1]: no significant differences
SMILES: C[N+](C)(C)CCO [choline]

relative plasma concentrations between study arms [1]: no significant differences
SMILES: N[C@@H](Cc1c[nH]c2ccccc12)C(=O)O [tryptophan]

CL renal (clinical; plasma and urine): 68.3 mL/min | Cmax (clinical): 2.6 ng/mL | Cmax (clinical; 50 mg): 2.6 ng/mL | AUC(0–4 h), effect of cimetidine exposure vs baseline (in words) [1, 9]: comparable | AUC(0–24 h), effect of cimetidine exposure vs baseline (in words) [1, 9]: comparable | CLr,a, effect of cimetidine exposure vs baseline (in words) [1, 9]: No change | CLr,b, effect of cimetidine exposure vs baseline (in words) [1, 9]: comparable | Cmax, effect of cimetidine exposure vs baseline (in words) [1, 9]: No change | CLr,a, effect of cimetidine exposure vs baseline (in words) [1, 10]: comparable | Cmax, effect of cimetidine exposure vs baseline (in words) [1, 10]: comparable | AUC(0–4 h) %Change (cimetidine exposure/baseline), decrease (↓) [1, 11]: 5% (↓) | AUC(0–24 h) %Change (cimetidine exposure/baseline), decrease (↓) [1, 11]: 5% (↓) | CLr,b %Change (cimetidine exposure/baseline), increase (↑) [1, 12]: 53% (↑)
SMILES: Cn1cnc2c(ncn2[C@@H]2O[C@H](CO)[C@@H](O)[C@H]2O)c1=N [N1-Methyladenosine, N1-methyladenosine]
Ae(0–4 h), effect of cimetidine exposure vs baseline (in words) [1, 9]: comparable | Ae(0–24 h), effect of cimetidine exposure vs baseline (in words) [1, 9]: comparable | Ae(0–24 h) %Change (cimetidine exposure/baseline), decrease (↓) [1, 11]: 4% (↓) | Ae(0–4 h) %Change (cimetidine exposure/baseline), increase (↑) [1, 12]: 44% (↑) | reduction in CLr [2]: 47%

SMILES: C[N+](C)(C)CC(O)CC(=O)[O-] (stereo not drawn) [carnitine]
relative plasma concentrations between study arms [1]: no significant differences

Cmax (clinical): 168 ng/mL | Cmax (clinical; 50 mg): 124 ng/mL | higher AUC(0–24 h), group TT compared to heterozygous group TC ([1]; MATE1 c.−66T>C (rs2252281), baseline arm, p = 0.042): 1.42 fold | CLr,b %Change (cimetidine exposure/baseline), decrease (↓) [1, 11]: 17% (↓) | CLr,a %Change (cimetidine exposure/baseline), decrease (↓) ([1]; decrease with cimetidine 400 mg vs baseline, healthy adults, CLr based on 0–24 h): 8% (↓) | Renal OCT2 alone (AUC(0–24 h)) % Change Observed data, increase (↑) ([1]; from the observed CLr decrease): 8% (↑) | AUC(0–24 h) %Change (cimetidine exposure/baseline), increase (↑) [1, 12]: 24% (↑) | AUC(0–24 h) %Change (cimetidine exposure/baseline), increase (↑) ([1]; increase with cimetidine 400 mg vs baseline, healthy adults, listed as metformin): 24% | increase in Cmax with cimetidine treatment ([1]; individuals homozygous for OCT1 c.480G>C (p.Leu160Phe, rs683369), p = 0.006): 48% | increase in AUC(0–24 h) with cimetidine treatment ([1]; individuals homozygous for OCT1 c.480G>C (p.Leu160Phe, rs683369), p = 0.025): 33% | increase in AUC(0–24 h) with cimetidine ([1]; participants homozygous for OCT2 c.1506C>T (p.Val502=, rs316003), p = 0.022): 27% | reduction in CLr,a with cimetidine ([1]; participants homozygous for OCT2 c.518+32G>C (rs2774230) or c.1506C>T (rs316003)): 9% | increase in AUC(0–24 h) with cimetidine ([1]; participants homozygous for OCT2 c.518+32G>C (rs2774230), p = 0.013): 35%
SMILES: CN(C)C(=N)N=C(N)N [Metformin]
decrease in CLr ([3]; oral metformin 250–500 mg with cimetidine, healthy adults): 27–45% | reduction in metformin CLr ([3]; similar cimetidine dosing regimen (400 mg), not statistically significant, ref 26 (Koishikawa et al.)): 15% | reduction of hepatic metformin concentration (Oct1 [4]): 3.4 fold | Ae(0–4 h) %Change (cimetidine exposure/baseline), increase (↑) [1, 12]: 4% (↑) | increase in metformin blood concentrations [5]: 3.2 fold | reduction in CLr [5]: 73% | share of urinary excretion through glomerular filtration [6]: 25% | share of urinary excretion through renal secretion [6]: 75%

relative plasma concentrations between study arms [1]: no significant differences
SMILES: CC(=O)OCC[N+](C)(C)C [acetylcholine]

SMILES: CN/C(=N/CCSCc1nc[nH]c1C)NC#N [Cimetidine, cimetidine]
inhibition of AO activity (aldehyde oxidase, AO): does not inhibit | IC50 (OCT2): 23.6 to 207 µM | inhibition of NNMT activity [7]: does not inhibit

SMILES: CC(C)C(=O)O[C@H](CC(=O)[O-])C[N+](C)(C)C [Isobutyryl-L-carnitine, isobutyryl-L-carnitine]
decrease in plasma exposure (OCT1 [8]): 35% | AUC(0–4 h), effect of cimetidine exposure vs baseline (in words) [1, 9]: did not differ | AUC(0–24 h), effect of cimetidine exposure vs baseline (in words) [1, 9]: did not differ | Cmax, effect of cimetidine exposure vs baseline (in words) [1, 9]: did not differ | AUC(0–24 h) %Change (cimetidine exposure/baseline), decrease (↓) [1, 11]: 4% (↓) | Cmax %Change (cimetidine exposure/baseline), decrease (↓) [1, 11]: 6% (↓)

relative plasma concentrations between study arms [1]: no significant differences
SMILES: C[n+]1cccc(C(=O)O)c1 [N1-methyl nicotinic acid]
